Among the data in patent US20260167622A1, “PAN-KRAS DEGRADING AGENT, AND PREPARATION METHOD THEREFOR AND USE THEREOF” (LEADINGTAC PHARMACEUTICAL (SHAOXING) CO., LTD., priority 2022, published 2026) are IC50 values, retold here.

In one experiment the target is T1, Human KRAS G12V (Homo sapiens, UniProt P01116, G12V).
T1 construct: purchased PerkinElmer
The experiment can be described thus: KRAS-G12V/GTP binding assay (HTRF kit). As to conditions: 25° C., 1 h. Here is the method: Test Example 2: KRAS G12V Binding Assay
In this method, the inhibitory effects of the compounds on the binding of KRAS G12V to GTP were assayed by a homogeneous time-resolved fluorescence (HTRF) technique using a KRAS-G12V/GTP binding assay kit (PerkinElmer).
The experimental procedures were as follows (refer to the kit instructions for detailed test methods): the compounds of the present disclosure were each firstly dissolved in DMSO at a concentration of 20 mM, and then diluted in an equal gradient with a buffer in the kit, so that the final concentrations of the test compounds in the reaction system were in a range of 0.02-5000 nM, and the final concentration of DMSO was 0.5%. 5 μL of each compound was incubated with 5 μL of 1× Human KRAS G12V 6His-tagged (PerkinElmer), 5 µL of 1×6His Eu Cryptate Antibody (PerkinElmer), and 5 μL of 1×GTP Red reagent (PerkinElmer) in a 384-well plate (Greiner) at 25° C. for 1 h. After the incubation was completed, the fluorescence intensity of each well was measured at the excitation wavelength of 337 nm and the emission wavelengths of 620 nm and 665 nm with an EnVision microplate reader (PerkinElmer) in the HTRF mode, and Ratio values were calculated using the formula: Ratio=(665 nm/620 nm)×10^4. The inhibition rates of the compounds at each concentration were calculated by comparing the fluorescence intensity ratio with that of the control group. Then non-linear curve fittings for logarithmic concentration-inhibition rate were performed using the GraphPad Prism 8 analysis software, and the IC50 values of the compounds were obtained (Table 3).
On the technique in general: TR-FRET usually uses a lanthanide donor and a delayed reading to cut background.

In experiment [1] the test system is KRAS G12D mutant human lung cancer cell A427. The experiment can be described thus: 3D cell proliferation inhibition assay, A427. It is filed as cell-based. As to conditions: A-427, 168 h, 3D culture, 7 days, CTG. A digest of the protocol:
(§1)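 Cells were seeded in low-adsorption 96-well plates at 5×10^2 cells/well (MKN1 at 1×10^3) with compounds at final 10000-0.026 nM, 0.2% DMSO, and grown 7 days at 37° C. CTG luminescence gave inhibition relative to DMSO and medium-only controls, and IC50 came from a log-concentration curve fit.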

Experiment [2] relates to KRAS G12D mutant human gastric cancer cell AGS. The experiment can be described thus: 3D cell proliferation inhibition assay, AGS. It is filed as cell-based. As to conditions: 168 h, 3D culture, 7 days, CTG. Summed up:
as §1

Experiment [3] concerns KRAS G12D mutant human metastatic pancreatic cancer cell AsPc-1. The experiment can be described thus: 3D cell proliferation inhibition assay, AsPc-1. As to conditions: ASPC1, 168 h, 3D culture, 7 days, CTG. It is filed as cell-based. Summed up:
as §1

The test system of experiment [4] is KRAS G12V mutant human lung squamous carcinoma cell SW900. The experiment can be described thus: 3D cell proliferation inhibition assay, SW900. It is filed as cell-based. As to conditions: SW900, 168 h, 3D culture, 7 days, CTG.
Experiment [5] has as its system KRAS G12V mutant human colorectal cancer cell SW620. In words: 3D cell proliferation inhibition assay, SW620. It is filed as cell-based. Particulars: SW-620, 168 h, 3D culture, 7 days, CTG. Summed up:
as §1

For experiment [6], the system named is KRAS G13D mutant human colorectal cancer epithelial cell DLD-1. The experiment can be described thus: 3D cell proliferation inhibition assay, DLD-1. It is filed as cell-based. Particulars: DLD-1, 168 h, 3D culture, 7 days, CTG. Summed up: as §1
Experiment [7] deals with KRAS WT human gastric cancer cell MKN1. The experiment can be described thus: 3D cell proliferation inhibition assay, MKN1. It is filed as cell-based. As to conditions: MKN-1, 168 h, 3D culture, 7 days, CTG. A digest of the protocol: as §1

The structures appear in SMILES notation.

T1 sequence (P01116 1-188 isoform P01116-2 G12V): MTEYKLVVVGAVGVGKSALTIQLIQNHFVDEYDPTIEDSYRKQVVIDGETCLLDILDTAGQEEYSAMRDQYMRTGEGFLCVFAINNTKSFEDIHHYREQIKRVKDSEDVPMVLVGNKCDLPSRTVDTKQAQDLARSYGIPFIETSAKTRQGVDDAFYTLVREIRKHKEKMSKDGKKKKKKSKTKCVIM

Regarding `C#Cc1c(F)ccc2cc(O)cc(-c3ncc4c(N5CCC[C@@](C)(O)C5)nc(OCC5(CN6CCN(CC7CCC8(CC7)CCN(C(=O)c7ccc(OC)c(N9CCC(=O)NC9=O)c7)CC8)CC6)CC5)nc4c3F)c12` [Example 7, (R)-1-(5-(9-((4-((1-(((7-(8-ethynyl-7-fluoro-3-hydroxynaphthalen-1-yl)-8-fluoro-4-(3-hydroxy-3-methylpiperidin-1-yl)pyrido[4,3-d]pyrimidin-2-yl)oxy)methyl)cyclopropyl)methyl)piperazin-1-yl)methyl)-3-azaspiro[5.5]undecane-3-carbonyl)-2-methoxyphenyl)dihydropyrimidine-2,4(1H,3H)-dione], the IC50 – broadly, the point on the concentration scale where inhibition reaches its midpoint – at Human KRAS G12V is no more than 500 nM; in experiment [1], no more than 50 nM; in experiment [2], no more than 50 nM; in experiment [3] it was no more than 50 nM; in experiment [4], no more than 50 nM; in experiment [5], 1.81 nM. Also, the IC50 in experiment [6] and in experiment [7] was no more than 50 nM each time.
In the case of `CCc1c(F)ccc2cc(O)cc(-c3ncc4c(N5CCC[C@@](C)(O)C5)nc(OCC5(CN6CCN(CC7CCC8(CC7)CCN(C(=O)c7ccc(Cl)c(N9CCC(=O)NC9=O)c7)CC8)CC6)CC5)nc4c3F)c12` [Example 2, (R)-1-(2-chloro-5-(9-((4-((1-(((7-(8-ethyl-7-fluoro-3-hydroxynaphthalen-1-yl)-8-fluoro-4-(3-hydroxy-3-methylpiperidin-1-yl)pyrido[4,3-d]pyrimidin-2-yl)oxy)methyl)cyclopropyl)methyl)piperazin-1-yl)methyl)-3-azaspiro[5.5]undecane-3-carbonyl)phenyl)dihydropyrimidine-2,4(1H,3H)-dione], the half-inhibitory concentration (IC50) on Human KRAS G12V was no more than 500 nM; in experiment [1] it was no more than 50 nM; in experiment [2], no more than 50 nM; in experiment [3] it was no more than 50 nM; in experiment [4], no more than 50 nM; in experiment [5] it was 1.85 nM. Moreover, the IC50 in experiment [6] and in experiment [7] was no more than 50 nM in each case.
For `C#Cc1c(F)ccc2cc(O)cc(-c3ncc4c(N5CCC[C@@](C)(O)C5)nc(OCC5(CN6CCN(CC7CCC8(CC7)CCN(C(=O)c7ccc(C)c(N9CCC(=O)NC9=O)c7)CC8)CC6)CC5)nc4c3F)c12` [Example 6, (R)-1-(5-(9-((4-((1-(((7-(8-ethynyl-7-fluoro-3-hydroxynaphthalen-1-yl)-8-fluoro-4-(3-hydroxy-3-methylpiperidin-1-yl)pyrido[4,3-d]pyrimidin-2-yl)oxy)methyl)cyclopropyl)methyl)piperazin-1-yl)methyl)-3-azaspiro[5.5]undecane-3-carbonyl)-2-methylphenyl)dihydropyrimidine-2,4(1H,3H)-dione], the IC50 was no more than 500 nM on Human KRAS G12V; no more than 50 nM in experiment [1]; no more than 50 nM in experiment [2]; no more than 50 nM in experiment [3]; no more than 50 nM in experiment [4]; 1.28 nM in experiment [5]. For the same molecule, the half-maximal inhibitory concentration (IC50) in experiment [6] and in experiment [7] was no more than 50 nM in each case.
On to `C#Cc1c(F)ccc2cc(O)cc(-c3ncc4c(N5CCC[C@@](C)(O)C5)nc(OCC5(CN6CCN(CC7CCC8(CC7)CCN(C(=O)c7ccc(Cl)c(N9CCC(=O)NC9=O)c7)CC8)CC6)CC5)nc4c3F)c12` [Example 1, (R)-1-(2-chloro-5-(9-((4-((1-(((7-(8-ethynyl-7-fluoro-3-hydroxynaphthalen-1-yl)-8-fluoro-4-(3-hydroxy-3-methylpiperidin-1-yl)pyrido[4,3-d]pyrimidin-2-yl)oxy)methyl)cyclopropyl)methyl)piperazin-1-yl)methyl)-3-azaspiro[5.5]undecane-3-carbonyl)phenyl)dihydropyrimidine-2,4(1H,3H)-dione], for which the IC50 at Human KRAS G12V was no more than 500 nM; in experiment [1] it was no more than 50 nM; in experiment [2], no more than 50 nM; in experiment [3], no more than 50 nM; in experiment [4] it was no more than 50 nM; in experiment [5], 1.41 nM. Besides, the IC50 in experiment [6] and in experiment [7] was no more than 50 nM each time.
Take `C#Cc1cccc2cc(O)cc(-c3ncc4c(N5CCC[C@@](C)(O)C5)nc(OCC5(CN6CCN(CC7CCC8(CC7)CCN(C(=O)c7ccc(Cl)c(N9CCC(=O)NC9=O)c7)CC8)CC6)CC5)nc4c3F)c12` [Example 11, (R)-1-(2-chloro-5-(9-((4-((1-(((7-(8-ethynyl-3-hydroxynaphthalen-1-yl)-8-fluoro-4-(3-hydroxy-3-methylpiperidin-1-yl)pyrido[4,3-d]pyrimidin-2-yl)oxy)methyl)cyclopropyl)methyl)piperazin-1-yl)methyl)-3-azaspiro[5.5]undecane-3-carbonyl)phenyl)dihydropyrimidine-2,4(1H,3H)-dione]: the IC50 on Human KRAS G12V was 500 to 1000 nM; in experiment [1] it was 50 to 100 nM; in experiment [2] it was no more than 50 nM; in experiment [3], no more than 50 nM; in experiment [4] it was no more than 50 nM; in experiment [5], 5.43 nM. In addition, the IC50 in experiment [6] and in experiment [7] was no more than 50 nM each time.
For `CCc1cccc2cc(O)cc(-c3ncc4c(N5CCC[C@@](C)(O)C5)nc(OCC5(CN6CCN(CC7CCC8(CC7)CCN(C(=O)c7ccc(Cl)c(N9CCC(=O)NC9=O)c7)CC8)CC6)CC5)nc4c3F)c12` [Example 3, (R)-1-(2-chloro-5-(9-((4-((1-(((7-(8-ethyl-3-hydroxynaphthalen-1-yl)-8-fluoro-4-(3-hydroxy-3-methylpiperidin-1-yl)pyrido[4,3-d]pyrimidin-2-yl)oxy)methyl)cyclopropyl)methyl)piperazin-1-yl)methyl)-3-azaspiro[5.5]undecane-3-carbonyl)phenyl)dihydropyrimidine-2,4(1H,3H)-dione], the concentration for half-maximal inhibition (IC50) on Human KRAS G12V is no more than 500 nM; in experiment [1], no more than 50 nM; in experiment [2], no more than 50 nM; in experiment [3], no more than 50 nM; in experiment [4], 100 to 500 nM; in experiment [5], 2.52 nM. The half-inhibitory concentration (IC50) in experiment [6] and in experiment [7] was no more than 50 nM throughout.
